Measurements taken from PubChem BioAssay (NCI).
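In this assay, cells in 96-well plates receive the compound at five concentrations for 48 hours. Endpoints are linearly interpolated between the surrounding concentrations. TGI: total growth inhibition.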

What was measured:
Test in all cases: inhibition of tumour cell growth, NCI panel, 48 h
[1] = test system: 786-0 renal
[2] = test system: ACHN renal
[3] = test system: HS 578T breast
[4] = test system: MALME-3M melanoma
[5] = test system: OVCAR-4 ovarian
[6] = test system: OVCAR-5 ovarian
[7] = test system: OVCAR-8 ovarian
[8] = test system: PC-3 prostate
[9] = test system: RXF 393 renal
[10] = test system: SW-620 colon
[11] = test system: T-47D breast
[12] = test system: UACC-62 melanoma
[13] = test system: HL-60(TB) leukemia
[14] = test system: SR leukemia

Measured: TGI

CSc1nc(Nc2cccc(C(F)(F)F)c2)c2c(N)nn(C)c2n1
not listed: [13] | [14]
> 100 µM: all other assays above

CSc1ncnc2c1ncn2CCC(=O)OC(C)(C)C
not listed: [3] | [12]
> 100 µM: all other assays above

Cn1c(=O)c2c(nc(Cc3ccccc3)n2CC(=O)O)n(C)c1=O
not listed: [13] | [14]
> 100 µM: all other assays above

CCCCCCOC(=O)/C=C/[C@]1(CO)C/C(=C/CC(C(C)C)C(C)C)C(=O)O1
17.6 µM: [1]
24.4 µM: [8]
27.3 µM: [12]
31.6 µM: [7]
20.7 µM: [2]
23.2 µM: [13]
36 µM: [5]
27.7 µM: [10]
36.9 µM: [9]
22.1 µM: [3]
37.5 µM: [11]
25.6 µM: [6]
25.7 µM: [4]

CCC(C)OC(=O)/C(Br)=C1/OC(=O)c2ccccc2-c2ccccc21 (stereo not given)
57.5 µM: [12]
21.5 µM: [9]
80.6 µM: [4]
not listed: [14]
> 100 µM: all other assays above

O=C(O)C(NCc1ccccc1)C(NCc1ccccc1)C(=O)O (stereo not given)
not listed: [6] | [8] | [9]
> 100 µM: all other assays above

O=C(Nc1nc(C23CC4CC(CC(C4)C2)C3)cs1)c1cc2ccc(O)cc2oc1=O
34.6 µM: [13]
37.8 µM: [3]
44 µM: [5]
48.5 µM: [6]
22 µM: [10]
34.5 µM: [4]
35.4 µM: [8]
90.9 µM: [7]
64.3 µM: [2]
23.8 µM: [1]
51.2 µM: [9]

CC1CCC(C(C)C)C(OC(=O)NCn2cc(-c3ccccc3)nn2)C1 (stereo not given)
not listed: [3] | [9] | [11] | [12]
> 100 µM: all other assays above

CCOc1ccccc1NC(=O)C(=O)CC(=O)c1sc(Nc2nnc(-c3ccc(Cl)c(Cl)c3)o2)nc1C
not listed: [3] | [8] | [11]
> 100 µM: all other assays above
